{"source": "patent US8012983B2", "about": "“Substituted triazolopyrazines useful for the treatment of degenerative and inflammatory diseases” (Galapagos NV, priority 2008, dated 2011)"}
{"test_system": "MMP1 expression by activated synovial fibroblasts (RASFs)", "experiment": "'MMP assay': complex trigger-induced MMP1 expression by synovial fibroblasts (MMP1 ELISA)", "type": "cell-based", "settings": "Homo sapiens, Fibroblast; RASFs, complex trigger, 48 hrs; read-out: MMP1 IC50", "description": "A 384-well format ELISA for measurement of MMP1 is developed. Various primary antibodies are tested, as well as various ELISA protocols. The following protocol is developed and validated to measure MMP1 levels in SF supernatant in 384 well plates: white Lumitrac 600 384 well plates (Greiner) are coated with 2 μg/mL anti-MMP1 antibody MAB1346 (Chemicon). The antibody is diluted in buffer 40 (1.21 g Tris base (Sigma), 0.58 g NaCl (Calbiochem) and 5 ml 10% NaN3 (Sigma) in 1 L milliQ water and adjusted to pH 8.5). After overnight incubation at 4° C., plates are washed with PBS (80 g NaCl, 2 g KCl (Sigma), 11.5 g Na2HPO4.7H2O and 2 g KH2PO4 in 10 L milliQ; pH 7.4) and blocked with 100 μL/well Casein buffer (2% Casein (VWR International) in PBS). Next day, casein buffer is removed from ELISA plates and replaced by 50 μL/well EC buffer (4 g casein, 2.13 g Na2HPO4 (Sigma), 2 g bovine albumin (Sigma), 0.69 g NaH2PO4.H2O (Sigma), 0.5 g CHAPS (Roche), 23.3 g NaCl, 4 ml 0,5 M EDTA pH 8 (Invitrogen), 5 ml 10% NaN3 in 1 L milliQ and adjusted to pH 7.0). 0.25 mM DTT (Sigma) is added to the thawed samples plates. After removal of the EC buffer, 20 μL of sample is transferred to the ELISA plates. After overnight incubation at 4° C. plates are washed twice with PBS and once with PBST (PBS with 0.05% Tween-20 (Sigma)) and incubated with 35 μL/well biotinylated anti-MMP1 antibody solution (R&D). This secondary antibody is diluted in buffer C (0.82 g NaH2PO4.H2O, 4.82 g Na2HPO4, 46.6 g NaCl, 20 g bovine albumin and 4 mL 0,5M EDTA pH 8 in 2 L milliQ and adjusted to pH 7.0) at a concentration of 5 μg/mL. After 2 h of incubation at RT, plates are washed as described above and incubated with 50 μL/well streptavidin-HRP conjugate (Biosource). Streptavidin-HRP conjugate is diluted in buffer C at a concentration of 0.25 μg/mL. After 45 min, plates are washed as described above and incubated for 5 min with 50 μL/well BM Chem ELISA Substrate (Roche). Readout is performed on the Luminoscan Ascent Luminometer (Labsystems) with an integration time of 200 msec or with an Envision reader (Perkin Elmer).\nThe increase of MMP1 expression by SFs upon treatment with cytokines relevant in the field of RA (TNF-α, IL1β and OSM) or a combination thereof is shown in FIG. 2 as white bars. For this experiment, SFs are seeded in 96 well plates, 3,000 cells/well. 24 h later, the medium is changed to M199 medium supplemented with 1% FBS. One day after the medium change, cytokines or combinations thereof are added to the cultures, each cytokine being added to a final concentration of 25 ng/mL. 72 h after cytokine addition, the supernatant is collected and processed in the MMP1 ELISA as described in the protocol given above. In parallel with this experiment, SFs are triggered, using the same protocol, with the supernatant of THP1 cells (2-fold diluted in M199+1% FBS) treated with the same cytokines or combinations of cytokines for 48 h in M199 medium+1% FBS. The induction of the MMP1 expression by SFs triggered with the supernatants of TNF-α-treated THP1 cells is stronger (>4.5 fold induction) as compared to the SFs triggered with recombinant TNF-α alone (3-fold induction) and almost equals the 5-fold induction obtained by a mixture of 3 purified cytokines (TNF-α, IL1βb, OSM). […] As the role of TNF-α in the RA pathogenesis is validated (TNF-α-blockers such as Infliximab and Etanercept show some efficacy in the treatment of RA patients) and the THP-1 cells are representative for monocytes/macrophages present in the joint of RA patients, the TNF-α-based trigger mixture prepared by contacting THP-1 cells with TNF-α will contain factors present in the joints of RA patients and subsequently is relevant to RA. This TNF-α-based complex trigger, further referred to as the ‘complex trigger’, will further be used as basis for the ‘MMP assay’. […]", "units": {"IC50": "nM"}}
{"compound": "CC(C)(C)N1C[C@@H]2C[C@H]1CN2c1ccc(Nc2ncc(-c3coc(C(N)=O)c3)n3ncnc23)cc1", "note": "[Compound 3, 4-{8-[4-((1S,4S)-5-tert-Butyl-2,5-diaza-bicyclo[2.2.1]hept-2-yl)-phenylamino]-[1,2,4]triazolo[1,5-a]pyrazin-5-yl}-furan-2-carboxamide]", "IC50": "> 1000"}
{"compound": "CC(C)N1C[C@@H]2C[C@H]1CN2c1ccc(Nc2ncc(-c3coc(C(N)=O)c3)n3ccnc23)cc1", "note": "[Compound 4, 4-{8-[4-((1S,4S)-5-Isopropyl-2,5-diaza-bicyclo[2.2.1]hept-2-yl)-phenylamino]-imidazo[1,2-a]pyrazin-5-yl}-furan-2-carboxamide]", "IC50": "> 1000"}
{"compound": "CC(C)N1C[C@@H]2C[C@H]1CN2c1ccc(Nc2ncc(-c3cc(C(N)=O)n[nH]3)n3ncnc23)cc1", "note": "[Compound 5, 5-{8-(4-((1S,4S)-5-isopropyl-2,5-diazabicyclo[2.2.1]heptan-2-yl)phenyl-amino)-[1,2,4]triazolo[1,5-a]pyrazin-5-yl}-1H-pyrazole-3-carboxamide]", "IC50": "1 to 1000"}
{"compound": "CC(C)(C)N1C[C@@H]2C[C@H]1CN2c1ccc(Nc2ncc(-c3coc(C(N)=O)c3)n3ccnc23)cc1", "note": "[Compound 6]", "IC50": "> 1000"}
{"compound": "CC(C)N1C[C@@H]2C[C@H]1CN2c1ccc(Nc2ncc(-c3cc[nH]c(=O)c3)n3ccnc23)cc1", "note": "[Compound 8, 4-{8-(4-((1S,4S)-5-isopropyl-2,5-diazabicyclo[2.2.1]heptan-2-yl)phenyl-amino)imidazo[1,2-a]pyrazin-5-yl}-1H-pyridin-2-one]", "IC50": "1 to 1000"}
{"compound": "CC(C)N1CC2CCC1CN2c1ccc(Nc2ncc(-c3coc(C(N)=O)c3)n3ncnc23)cc1", "note": "(centres unmarked) [Compound 9, 4-{8-(4-(5-isopropyl-2,5-diazabicyclo[2.2.2]octan-2-yl)phenylamino)[1,2,4]-triazolo[1,5-a]pyrazin-5-yl}-furan-2-carboxamide]", "IC50": "1 to 1000"}
{"compound": "CC(C)N1CC2CCC(C1)N2c1ccc(Nc2ncc(-c3coc(C(N)=O)c3)n3ccnc23)cc1", "note": "[Compound 11, 4-{8-(4-(3-isopropyl-3,8-diazabicyclo[3.2.1]octan-8-yl)phenylamino)-imidazo[1,2-a]pyrazin-5-yl}-furan-2-carboxamide]", "IC50": "> 1000"}
{"compound": "CC(C)N1C2CCC1CN(c1ccc(Nc3ncc(-c4coc(C(N)=O)c4)n4ncnc34)cc1)C2", "note": "[Compound 12, 4-{8-(4-(8-isopropyl-3,8-diazabicyclo[3.2.1]octan-3-yl)phenylamino)[1,2,4]-triazolo[1,5-a]pyrazin-5-yl}-furan-2-carboxamide]", "IC50": "> 1000"}
{"compound": "CC(C)N1C[C@@H]2C[C@H]1CN2c1ccc(Nc2ncc(-c3cc(C(N)=O)n[nH]3)n3ncnc23)cn1", "note": "[Compound 15, 5-{8-(6-((1S,4S)-5-isopropyl-2,5-diazabicyclo[2.2.1]heptan-2-yl)pyridin-3-ylamino)-[1,2,4]triazolo[1,5-a]pyrazin-5-yl}-1H-pyrazole-3-carboxylic acid amide]", "IC50": "> 1000"}
{"compound": "CC(C)(C)N1C[C@@H]2C[C@H]1CN2c1ccc(Nc2ncc(-c3ccc4c(c3)CNC4=O)n3ncnc23)cc1", "note": "[Compound 16, 5-{8-(4-((1S,4S)-5-tert-butyl-2,5-diazabicyclo[2.2.1]heptan-2-yl)phenylamino)-[1,2,4]triazolo-[1,5-a]pyrazin-5-yl}-2,3-dihydro-isoindol-1-one]", "IC50": "> 1000"}
{"compound": "CC(C)(C)N1C[C@@H]2C[C@H]1CN2c1ccc(Nc2ncc(-c3cc(C(N)=O)n[nH]3)n3ncnc23)cc1", "note": "[Compound 17, 5-{8-(4-((1S,4S)-5-tert-butyl-2,5-diazabicyclo[2.2.1]heptan-2-yl)phenyl-amino)-[1,2,4]triazolo[1,5-a]pyrazin-5-yl}-1H-pyrazole-3-carboxylic acid amide]", "IC50": "> 1000"}
{"compound": "CC(C)N1C[C@@H]2C[C@H]1CN2c1ccc(Nc2ncc(-c3ccc4c(c3)CNC4=O)n3ncnc23)cn1", "note": "[Compound 18, 5-{8-(6-((1S,4S)-5-isopropyl-2,5-diazabicyclo[2.2.1]heptan-2-yl)pyridin-3-ylamino)-[1,2,4]triazolo[1,5-a]pyrazin-5-yl}-2,3-dihydro-isoindol-1-one]", "IC50": "> 1000"}
{"compound": "CCOc1cc(-c2cnc(Nc3ccc(N4C[C@@H]5C[C@H]4CN5C(C)C)cc3)c3ncnn23)ccn1", "note": "[Compound 19, 5-(2-ethoxypyridin-4-yl)-N-(4-((1S,4S)-5-isopropyl-2,5-diazabicyclo[2.2.1]heptan-2-yl)phenyl)-[1,2,4]triazolo[1,5-a]pyrazin-8-amine]", "IC50": "> 1000"}
{"compound": "CC(C)N1C[C@@H]2C[C@H]1CN2c1ccc(Nc2ncc(-c3cc[nH]c(=O)c3)n3ncnc23)cc1", "note": "[Compound 20, 4-(8-(4-((1S,4S)-5-isopropyl-2,5-diazabicyclo[2.2.1]heptan-2-yl)phenylamino)-[1,2,4]triazolo[1,5-a]pyrazin-5-yl)pyridin-2(1H)-one]", "IC50": "> 1000"}
{"compound": "CCOC(=O)c1cc(-c2cnc(Nc3ccc(N4C[C@@H]5C[C@H]4CN5C(C)C)cc3)c3ncnn23)[nH]n1", "note": "[Compound 21, Ethyl 5-(8-(4-((1S,4S)-5-isopropyl-2,5-diazabicyclo[2.2.1]heptan-2-yl)phenylamino)-[1,2,4]triazolo[1,5-a]pyrazin-5-yl)-1H-pyrazole-3-carboxylate]", "IC50": "> 1000"}
{"compound": "CCOc1cc(-c2cnc(Nc3ccc(N4C[C@@H]5C[C@H]4CN5C(C)C)cc3)c3nccn23)ccn1", "note": "[Compound 22, 5-(2-ethoxypyridin-4-yl)-N-(4-((1S,4S)-5-isopropyl-2,5-diazabicyclo[2.2.1]heptan-2-yl)phenyl)imidazo[1,2-a]pyrazin-8-amine]", "IC50": "> 1000"}
{"compound": "CC(C)N1C[C@@H]2C[C@H]1CN2c1ccc(Nc2ncc(-c3noc(C(N)=O)n3)n3ncnc23)cc1", "note": "[Compound 23, 3-(8-(4-((1S,4S)-5-isopropyl-2,5-diazabicyclo[2.2.1]heptan-2-yl)phenylamino)-[1,2,4]triazolo[1,5-a]pyrazin-5-yl)-1,2,4-oxadiazole-5-carboxamide]", "IC50": "> 1000"}
{"compound": "CC(C)N1C[C@@H]2C[C@H]1CN2c1cccc(Nc2ncc(-c3coc(C(N)=O)c3)n3ncnc23)c1", "note": "[Compound 24, 4-(8-(3-((1S,4S)-5-isopropyl-2,5-diazabicyclo[2.2.1]heptan-2-yl)phenylamino)-[1,2,4]triazolo[1,5-a]pyrazin-5-yl)furan-2-carboxamide]", "IC50": "> 1000"}
{"compound": "CC(C)N1C[C@@H]2C[C@H]1CN2c1cccc(Nc2ncc(-c3coc(C(N)=O)c3)n3ccnc23)c1", "note": "[Compound 25, 4-(8-(3-((1S,4S)-5-isopropyl-2,5-diazabicyclo[2.2.1]heptan-2-yl)phenylamino)imidazo[1,2-a]pyrazin-5-yl)furan-2-carboxamide]", "IC50": "> 1000"}
{"compound": "CC(C)N1C[C@@H]2C[C@H]1CN2c1cccc(Nc2ncc(-c3ccc4c(c3)CNC4=O)n3ncnc23)c1", "note": "[Compound 26, 5-(8-(3-((1S,4S)-5-isopropyl-2,5-diazabicyclo[2.2.1]heptan-2-yl)phenylamino)-[1,2,4]triazolo[1,5-a]pyrazin-5-yl)isoindolin-1-one]", "IC50": "> 1000"}
